These results are taken from patent publication US6087355A, “Cephalosporin antibiotics” (Microcide Pharmaceuticals, Inc., priority 1996, dated 2000).

Structures can show the parent of a compound that is named as a salt. Bounds are passed on as bounds.

Holding throughout (test): In vitro MIC, agar dilution
Common to all, as to type: cell-based
(In general: In agar dilution the substance is mixed into plates at graded concentrations.)

One assay has as its system E. faecalis ATCC 29212. The settings on record: Enterococcus faecalis, ATCC29212, read-out: minimum inhibitory concentration (MIC). On the procedure:
(§1) The compounds of the invention were evaluated against several β-lactamresistant (for example methicillin-resistant, vancomycin resistant, and/or ampicillin-resistant) bacteria strains by determining the minimum inhibitory concentration (MIC, μg/ml) of each compound with respect to each strain. The MIC, the lowest concentration of antibiotic which inhibits growth of the test organism, was determined by the agar dilution method.
(§2) To determine the MIC for bacterial isolates, the test compound was incorporated in a series of two-fold dilutions into liquified Mueller-Hinton agar. Upon solidification, a number of different bacterial strains were spot inoculated with a replicating device onto the agar surface.
(§3) Aliquots of antimicrobial agents were prepared in phosphate buffered saline (PBS) at pH 7.2. Tween 20 or DMSO was used as a solubilizing vehicle as needed. Standard methods of vortexing, sonicating and gentle heat were used to facilitate solubilizing the test agent. […] A 1.28 mg/mL stock solution was used with a subsequent highest working concentration of 128 μg/mL. Serial two-fold dilutions were done through ≤0.25 μg/mL. Each drug level was tested in duplicate. Two-fold drug dilutions were done in sterile 50 mL tubes with a final drug volume of 5 mL. Upon the addition of 45 mL of molten agar, a 10-fold dilution resulted. Two, 25 mL. plates were then poured into 15×150 mm square Petri plates with grids and allowed to harden.
(§4) A control plate with a reference drug, either cefotaxime, vancomycin or imipenem, was used as the positive growth control. Stock concentrations of reference antibiotics were prepared and frozen at -80° C. […] All test plates were used within 24 hours of preparation.
(§5) Satisfactory results were obtained where the inoculum contained about 10^4 colony forming units (cfu)±0.5 logs. Starting with pure cultures of the test isolates on agar plates, a few isolated colonies were transferred to a tube of nutrient broth and allowed to grow 4-6 hours at 35-36° C. to reach log-phase growth. Dropwise addition of the broth culture to PBS was done to match a 0.5 McFarland turbidity standard equal to 10^8 cfu/mL. This was further diluted ten-fold in PBS to reach a working inoculum concentration of 10^7 cfu/mL. When 1 μL of the working inoculum was applied to the agar surface a concentration of about 10^4 cfu per spot was obtained.
(§6) Disposable sterile 1 μL loops were used to inoculate test plates, with each isolate in a designated grid on the agar plate. An alternate method of inoculation involved the use of a replica plater, a device with 48 steel pins allowing the simultaneous inoculation of multiple isolates. After the spots had dried, the plates were incubated at 35-36° C. for 16-20 hours. Endpoints were assessed as the minimum inhibitory concentration (MIC) of antimicrobial agent.

Assay [1] concerns S. aureus ATCC 13709(Meth^S). The settings on record: Staphylococcus aureus, ATCC13709, S. aureus ATCC 13709(Meth^S); read-out: minimum inhibitory concentration (MIC). On the procedure: as §1, §2, §3, §4, §5, §6
The test system of assay [2] is S. aureus ATCC 33593(Meth^R). The settings on record: Staphylococcus aureus, ATCC33593, read-out: minimum inhibitory concentration (MIC). On the procedure:
as §1, §2, §3, §4, §5, §6

Assay [3] has as its system S. aureus Spain #356(Meth^R). The settings on record: Staphylococcus aureus, read-out: minimum inhibitory concentration (MIC). On the procedure: as §1, §2, §3, §4, §5, §6
The test system of another assay is P. aeruginosa ATCC 27853. The settings on record: Pseudomonas aeruginosa, ATCC27853, read-out: minimum inhibitory concentration (MIC). On the procedure:
as §1, §2, §3, §4, §5, §6

The test system of assay [4] is S. haemolyticus 05(Meth^R). The settings on record: Staphylococcus haemolyticus, read-out: minimum inhibitory concentration (MIC). On the procedure:
as §1, §2, §3, §4, §5, §6

The test system of the next assay is S. aureus ATCC 29213. The settings on record: Staphylococcus aureus, ATCC29213, read-out: minimum inhibitory concentration (MIC). On the procedure:
as §1, §2, §3, §4, §5, §6

The subject of assay [5] is S. aureus PC1(Meth^S)(lac^+). The settings on record: Staphylococcus aureus, read-out: minimum inhibitory concentration (MIC). The procedure: as §1, §2, §3, §4, §5, §6
The subject of a further assay is E. faecium VanA(Van^R). The settings on record: Enterococcus faecium, read-out: minimum inhibitory concentration (MIC). The procedure:
as §1, §2, §3, §4, §5, §6

The next assay concerns E. faecium ATCC 35667. The settings on record: Enterococcus faecium, ATCC35667, read-out: minimum inhibitory concentration (MIC). On the procedure: as §1, §2, §3, §4, §5, §6
A further assay concerns E. faecalis VanB(Van^R). The settings on record: Enterococcus faecalis, read-out: minimum inhibitory concentration (MIC). The procedure: as §1, §2, §3, §4, §5, §6
In a further assay the test system is E. coli ATCC 25992. The settings on record: Escherichia coli, ATCC25992, read-out: minimum inhibitory concentration (MIC). The procedure: as §1, §2, §3, §4, §5, §6
The subject of assay [6] is S. aureus 76(Meth^R)(lac^+). The settings on record: Staphylococcus aureus, read-out: minimum inhibitory concentration (MIC). The procedure: as §1, §2, §3, §4, §5, §6
Another assay concerns E. faecium A491(Amp^R). The settings on record: Enterococcus faecium, read-out: minimum inhibitory concentration (MIC). On the procedure:
as §1, §2, §3, §4, §5, §6

Assay [7] concerns S. aureus Col(Meth^R)(lac^-). The settings on record: Staphylococcus aureus, read-out: minimum inhibitory concentration (MIC). On the procedure:
as §1, §2, §3, §4, §5, §6
The S. aureus Col strain is a high-level PBP2a producer, whereas S. aureus Col 8A, its isogenic partner, lacks PBP2a.

`CNCCSCc1cnccc1SC1=C(C(=O)O)N2C(=O)[C@@H](NC(=O)/C(=N\O)c3nc(N)sc3Cl)[C@H]2SC1` [Cmpd 41, (7R)-7-[(Z)-2-(2-amino-5-chlorothiazol-4-yl)-2-(hydroxyimino)acetamido]-3-(3-(2-N-methylaminoethylthiomethyl)pyrid-4-ylthio)-3-cephem-4-carboxylate, trifluoroacetic acid salt]: the MIC was no more than 0.06 µg/mL in the assay with E. faecalis ATCC 29212; 0.13 µg/mL in assay [1]; 1 µg/mL in assay [2]; 1 µg/mL in [3]; 32 µg/mL with P. aeruginosa ATCC 27853; 1 µg/mL in assay [4]. The MIC in the assay with S. aureus ATCC 29213 was 0.13 µg/mL; in assay [5] it was 0.25 µg/mL; with E. faecium VanA(Van^R) it was 1 µg/mL; in the assay with E. faecium ATCC 35667 it was 0.25 µg/mL; with E. faecalis VanB(Van^R) it was no more than 0.06 µg/mL; with E. coli ATCC 25992, 4 µg/mL. Besides, the MIC in assay [6] came to 1 µg/mL; in the assay on E. faecium A491(Amp^R), 8 µg/mL; in assay [7], 1 µg/mL.

In the case of `NCC#CCc1cnccc1SC1=C(C(=O)O)N2C(=O)[C@@H](NC(=O)/C(=N\O)c3nc(N)sc3Cl)[C@H]2SC1` [Cmpd 48, (7R)-7-[(Z)-2-(2-amino-5-chlorothiazol-4-yl)-2-(hydroxyimino)acetamido]-3-(3-(4-amino-2-butyn-1-yl)pyrid-4-ylthio)-3-cephem-4-carboxylate, trifluoroacetic acid salt], the MIC in the assay on E. faecalis ATCC 29212 is 0.25 µg/mL; in [1], 0.25 µg/mL; in assay [2], 4 µg/mL; in [3], 8 µg/mL; with P. aeruginosa ATCC 27853, greater than 32 µg/mL; in [4], 16 µg/mL. Also, the MIC worked out at 0.5 µg/mL in the assay with S. aureus ATCC 29213; 0.5 µg/mL in [5]; 4 µg/mL in the assay with E. faecium VanA(Van^R); 1 µg/mL in the assay on E. faecium ATCC 35667; 0.5 µg/mL with E. faecalis VanB(Van^R); 4 µg/mL in the assay with E. coli ATCC 25992. For the same molecule, the MIC in assay [6] was 8 µg/mL; with E. faecium A491(Amp^R), 32 µg/mL; in [7], 4 µg/mL.

Consider `CC(N)COCc1cnccc1SC1=C(C(=O)O)N2C(=O)[C@@H](NC(=O)/C(=N\O)c3nc(N)sc3Cl)[C@H]2SC1` (stereo partly drawn) [Cmpd 49, (7R)-7-[(Z)-2-(2-amino-5-chlorothiazol-4-yl)-2-(hydroxyimino)acetamido]-3-(3-(2-aminopropyloxymethyl)pyrid-4-ylthio)-3-cephem-4-carboxylate, trifluoroacetic acid salt], for which the MIC is 0.13 µg/mL with E. faecalis ATCC 29212; 0.25 µg/mL in [1]; 2 µg/mL in assay [2]; 2 µg/mL in assay [3]; greater than 32 µg/mL in the assay with P. aeruginosa ATCC 27853; 4 µg/mL in assay [4]. Further, the MIC was determined as 0.25 µg/mL in the assay on S. aureus ATCC 29213; 0.5 µg/mL in [5]; 2 µg/mL in the assay with E. faecium VanA(Van^R); 1 µg/mL in the assay with E. faecium ATCC 35667; 0.13 µg/mL in the assay on E. faecalis VanB(Van^R); 8 µg/mL with E. coli ATCC 25992. The figures for the MIC (in [6]; in the assay on E. faecium A491(Amp^R); in [7]) were 2 µg/mL, 16 µg/mL and 2 µg/mL, respectively.

For `NCCCSc1cnccc1SC1=C(C(=O)O)N2C(=O)[C@@H](NC(=O)/C(=N\O)c3nc(N)sc3Cl)[C@H]2SC1` [Cmpd 51, (7R)-7-[(Z)-2-(2-amino-5-chlorothiazol-4-yl)-2-(hydroxyimino)acetamido]-3-(3-(3-aminopropylthio)pyrid-4-ylthio)-3-cephem-4-carboxylate, trifluoroacetic acid salt], the MIC in the assay with E. faecalis ATCC 29212 is 0.13 µg/mL; in assay [1], 0.5 µg/mL; in [2] it was 2 µg/mL; in [3], 2 µg/mL; in the assay with P. aeruginosa ATCC 27853, greater than 32 µg/mL; in assay [4], 2 µg/mL. Moreover, the MIC stood at 0.25 µg/mL with S. aureus ATCC 29213; 0.5 µg/mL in assay [5]; 1 µg/mL with E. faecium VanA(Van^R); 0.13 µg/mL in the assay with E. faecium ATCC 35667; 0.25 µg/mL in the assay with E. faecalis VanB(Van^R); 8 µg/mL in the assay with E. coli ATCC 25992. Besides, the values for the MIC (in assay [6]; with E. faecium A491(Amp^R); in assay [7]) were 4 µg/mL, 8 µg/mL and 2 µg/mL, respectively.

For the molecule `CC(=N)NCCSCc1cnccc1SC1=C(C(=O)O)N2C(=O)[C@@H](NC(=O)/C(=N\O)c3nc(N)sc3Cl)[C@H]2SC1` [Cmpd 54, (7R)-7-[(Z)-2-(2-amino-5-chlorothiazol-4-yl)-2-(hydroxyimino)acetamido]-3-(3-(N-acetamidinoyl)aminoethylthiomethylpyrid-4-ylthio)-3-cephem-4-carboxylate, trifluoroacetic acid salt], the MIC with E. faecalis ATCC 29212 was 0.13 µg/mL; in assay [1], 0.25 µg/mL; in [2], 1 µg/mL; in [3], 2 µg/mL; with P. aeruginosa ATCC 27853 it was greater than 32 µg/mL; in assay [4], 2 µg/mL. The MIC in the assay on S. aureus ATCC 29213 was 0.25 µg/mL; in assay [5], 0.25 µg/mL; with E. faecium VanA(Van^R) it was 1 µg/mL; in the assay on E. faecium ATCC 35667, 0.5 µg/mL; with E. faecalis VanB(Van^R), 0.25 µg/mL; with E. coli ATCC 25992, 8 µg/mL. Further, the MIC in assay [6] was 2 µg/mL; in the assay on E. faecium A491(Amp^R), 8 µg/mL; in assay [7], 2 µg/mL.

`N=C(N)SCc1cnccc1SC1=C(C(=O)O)N2C(=O)[C@@H](NC(=O)/C(=N\O)c3nc(N)sc3Cl)[C@H]2SC1` [Cmpd 60, (7R)-7-[(Z)-2-(2-amino-5-chlorothiazol-4-yl)-2-(hydroxyimino)acetamido]-3-(3-isothioureidomethylpyrid-4-ylthio)-3-cephem-4-carboxylate, trifluoroacetic acid salt]: the MIC in the assay on E. faecalis ATCC 29212 was 0.5 µg/mL; in assay [1] it was 0.13 µg/mL; in [2] it was 2 µg/mL; in assay [3], 2 µg/mL; with P. aeruginosa ATCC 27853, greater than 32 µg/mL; in assay [4] it was 4 µg/mL. Besides, the MIC in the assay on S. aureus ATCC 29213 was found to be 0.25 µg/mL; in assay [5], 0.25 µg/mL; in the assay on E. faecium VanA(Van^R) it was 2 µg/mL; in the assay with E. faecium ATCC 35667 it was 1 µg/mL; with E. faecalis VanB(Van^R) it was 0.25 µg/mL; in the assay on E. coli ATCC 25992 it was 8 µg/mL. The MIC in [6] is 1 µg/mL; in the assay with E. faecium A491(Amp^R), 16 µg/mL; in assay [7], 2 µg/mL.

`CN(C)C(=O)CNCCSCc1cnccc1SC1=C(C(=O)O)N2C(=O)[C@@H](NC(=O)/C(=N\O)c3nc(N)sc3Cl)[C@H]2SC1` [Cmpd 61, (7R)-7-[(Z)-2-(2-amino-5-chlorothiazol-4-yl)-2-(hydroxyimino)acetamido]-3-(3-(N,N-dimethylcarboxamidomethylaminoethylthiomethyl)pyrid-4-ylthio)-3-cephem-4-carboxylate, trifluoroacetic acid salt]: the MIC in the assay on E. faecalis ATCC 29212 was 0.25 µg/mL; in assay [1] it was 1 µg/mL; in assay [2] it was 4 µg/mL; in assay [3] it was 4 µg/mL; with P. aeruginosa ATCC 27853 it was greater than 32 µg/mL; in assay [4], 8 µg/mL. The MIC in the assay with S. aureus ATCC 29213 is 1 µg/mL; in [5], 1 µg/mL; in the assay on E. faecium VanA(Van^R) it was 2 µg/mL; in the assay with E. faecium ATCC 35667, 1 µg/mL; in the assay on E. faecalis VanB(Van^R) it was 0.25 µg/mL; in the assay on E. coli ATCC 25992 it was 16 µg/mL. Also, the MIC in assay [6] was 4 µg/mL; with E. faecium A491(Amp^R) it was 16 µg/mL; in assay [7], 4 µg/mL.
